Laboratory results from ChEMBL document CHEMBL5550116, “Discovery of novel macrocyclic derivatives as potent and selective cyclin-dependent kinase 2 inhibitors” (Bioorg Med Chem, 2024).
Active and inactive are the calls of the source. No cut-off for these calls is given here.

Tests used:
CDK9/cyclin T1 = CDK9/cyclin T1 (Homo sapiens, UniProt P50750); assay: Inhibition of full-length recombinant N-terminal GST-tagged human CDK9 (1 to 372 residues)/His-tagged cyclinT1 (1 to 726 residues) expressed in baculovirus expression system using histone H1 as substrate preincubated for 10 mins followed by substrate and ATP addition and measured after 60 mins by ADP-Glo reagent based microplate reader assay
CDK9/cyclin T1, sequence (O60563 whole entry, the tested form may be a part): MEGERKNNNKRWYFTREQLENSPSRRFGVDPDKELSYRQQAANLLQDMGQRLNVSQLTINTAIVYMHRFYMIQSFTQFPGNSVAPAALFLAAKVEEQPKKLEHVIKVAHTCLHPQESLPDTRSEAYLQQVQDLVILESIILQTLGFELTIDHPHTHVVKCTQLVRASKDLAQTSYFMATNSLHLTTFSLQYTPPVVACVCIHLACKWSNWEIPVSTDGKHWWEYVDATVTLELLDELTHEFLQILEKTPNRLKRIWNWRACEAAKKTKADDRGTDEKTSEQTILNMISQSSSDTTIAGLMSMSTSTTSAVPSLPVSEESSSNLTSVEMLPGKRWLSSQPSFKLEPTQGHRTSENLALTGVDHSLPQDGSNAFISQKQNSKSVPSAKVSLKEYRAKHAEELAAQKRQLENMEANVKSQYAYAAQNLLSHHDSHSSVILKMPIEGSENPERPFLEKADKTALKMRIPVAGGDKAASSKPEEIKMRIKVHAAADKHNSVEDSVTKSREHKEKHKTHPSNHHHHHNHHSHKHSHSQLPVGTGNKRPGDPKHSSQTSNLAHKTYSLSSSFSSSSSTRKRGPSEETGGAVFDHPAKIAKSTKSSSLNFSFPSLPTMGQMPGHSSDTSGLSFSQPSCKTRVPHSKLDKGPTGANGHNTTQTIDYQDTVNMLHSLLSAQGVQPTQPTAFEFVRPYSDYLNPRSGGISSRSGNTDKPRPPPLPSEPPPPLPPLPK
CDK9/cyclin T1, sequence (P50750 whole entry, the tested form may be a part): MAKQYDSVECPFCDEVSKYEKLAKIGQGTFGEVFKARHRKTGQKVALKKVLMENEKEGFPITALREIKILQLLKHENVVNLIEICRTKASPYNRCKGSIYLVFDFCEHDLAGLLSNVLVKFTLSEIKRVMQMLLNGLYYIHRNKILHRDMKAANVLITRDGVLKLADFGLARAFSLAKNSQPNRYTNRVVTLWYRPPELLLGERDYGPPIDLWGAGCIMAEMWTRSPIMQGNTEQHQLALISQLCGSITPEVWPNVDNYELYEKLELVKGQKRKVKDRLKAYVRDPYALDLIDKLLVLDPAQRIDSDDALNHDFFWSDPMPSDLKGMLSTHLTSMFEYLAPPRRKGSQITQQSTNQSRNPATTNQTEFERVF

[1] = molecular target: Cyclin-dependent kinase 2/cyclin E1 (Homo sapiens, UniProt P24941); assay: Inhibition of full length N-terminal GST-tagged human CDK2 (1 to 298 residues)/cyclin E1 (1 to 410 residues) expressed in Sf21 cells using histone H1 as substrate preincubated for 10 mins followed by substrate and ATP addition and measured after 60 mins by ADP-Glo reagent based microplate reader assay
CDK7/Cyclin H/MNAT1 = CDK7/Cyclin H/MNAT1 (Homo sapiens, UniProt P50613); assay: Inhibition of recombinant human His-tagged CDK7/cyclin H/MNAT1 expressed in baculovirus expression system using histone H1 as substrate preincubated for 10 mins followed by substrate and ATP addition and measured after 60 mins by ADP-Glo reagent based microplate reader assay
CDK7/Cyclin H/MNAT1, sequence (P51946 whole entry): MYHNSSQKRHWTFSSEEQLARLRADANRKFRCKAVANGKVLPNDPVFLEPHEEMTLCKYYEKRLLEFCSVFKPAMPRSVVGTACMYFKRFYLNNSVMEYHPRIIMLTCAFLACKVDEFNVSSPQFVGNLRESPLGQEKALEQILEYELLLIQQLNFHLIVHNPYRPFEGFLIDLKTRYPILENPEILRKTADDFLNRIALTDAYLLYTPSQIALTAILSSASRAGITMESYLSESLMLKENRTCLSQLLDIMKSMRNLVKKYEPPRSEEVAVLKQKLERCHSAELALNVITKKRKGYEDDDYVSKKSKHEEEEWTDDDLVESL
CDK7/Cyclin H/MNAT1, sequence (P50613 whole entry): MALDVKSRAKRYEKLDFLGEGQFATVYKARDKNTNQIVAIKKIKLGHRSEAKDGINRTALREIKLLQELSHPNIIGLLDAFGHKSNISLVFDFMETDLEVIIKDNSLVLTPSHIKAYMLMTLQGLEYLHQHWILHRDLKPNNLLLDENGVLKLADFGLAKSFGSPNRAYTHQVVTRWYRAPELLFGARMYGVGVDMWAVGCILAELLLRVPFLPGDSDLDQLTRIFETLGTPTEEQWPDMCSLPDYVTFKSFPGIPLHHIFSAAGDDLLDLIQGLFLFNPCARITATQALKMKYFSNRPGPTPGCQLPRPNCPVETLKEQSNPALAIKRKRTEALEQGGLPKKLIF
CDK7/Cyclin H/MNAT1, sequence (P51948 whole entry, further chain): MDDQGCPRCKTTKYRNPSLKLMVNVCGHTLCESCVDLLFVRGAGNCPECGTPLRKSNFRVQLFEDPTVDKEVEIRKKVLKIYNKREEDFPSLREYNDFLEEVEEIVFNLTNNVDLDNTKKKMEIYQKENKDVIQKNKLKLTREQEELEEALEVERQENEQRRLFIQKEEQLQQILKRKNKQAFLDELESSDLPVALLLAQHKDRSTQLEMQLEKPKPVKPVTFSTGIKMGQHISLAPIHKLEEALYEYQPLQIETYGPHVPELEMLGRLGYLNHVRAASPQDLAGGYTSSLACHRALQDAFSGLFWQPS

[2] = molecular target: Cyclin-dependent kinase 5/CDK5 activator 1 (Homo sapiens, UniProt Q00535); assay: Inhibition of human CDK5/p25NCK using histone H1 as substrate preincubated for 10 mins followed by substrate and ATP addition and measured after 60 mins by ADP-Glo reagent based microplate reader assay; format: protein-complex assay
Cyclin-dependent kinase 5/CDK5 activator 1, sequence (Q00535 whole entry): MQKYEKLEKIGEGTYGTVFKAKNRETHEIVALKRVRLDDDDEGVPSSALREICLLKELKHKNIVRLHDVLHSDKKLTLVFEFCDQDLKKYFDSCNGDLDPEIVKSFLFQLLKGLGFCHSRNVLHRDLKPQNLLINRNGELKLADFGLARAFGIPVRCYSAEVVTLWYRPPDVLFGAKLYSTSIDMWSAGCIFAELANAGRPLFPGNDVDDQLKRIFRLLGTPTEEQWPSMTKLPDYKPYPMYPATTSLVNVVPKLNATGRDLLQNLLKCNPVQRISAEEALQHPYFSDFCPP
Cyclin-dependent kinase 5/CDK5 activator 1, sequence (Q15078 whole entry, further chain): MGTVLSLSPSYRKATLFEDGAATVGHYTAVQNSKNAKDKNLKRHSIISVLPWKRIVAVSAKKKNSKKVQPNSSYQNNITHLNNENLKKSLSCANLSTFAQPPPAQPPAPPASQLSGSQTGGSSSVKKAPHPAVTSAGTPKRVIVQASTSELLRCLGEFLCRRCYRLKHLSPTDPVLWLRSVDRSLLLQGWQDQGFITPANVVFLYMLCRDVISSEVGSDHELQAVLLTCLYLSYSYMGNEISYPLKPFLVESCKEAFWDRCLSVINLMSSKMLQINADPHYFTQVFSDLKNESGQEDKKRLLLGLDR

[3] = Metabolic stability in mouse liver microsomes assessed as half life at 1 uM preincubated with compound for 10 mins followed by beta-NADPH addition measured upto 60 mins by LC-MS/MS analysis; format: ADME, Microsome; settings: time < 70 min
MKN-1 [4] = assay: Antiproliferative activity against human MKN-1 cells incubated for 5 days by CCK-8 assay; format: functional, cell-based; settings: MKN-1, 120 h
[5] = Metabolic stability in human liver microsomes assessed as half life at 1 uM preincubated with compound for 10 mins followed by beta-NADPH addition measured upto 60 mins by LC-MS/MS analysis; format: ADME, Microsome; settings: time < 70 min
MKN-1 [6] = assay: Induction of cell cycle arrest in human MKN-1 cells assessed as reduction in G2/M phase cells at 111.1 to 333.3 nM incubated for 24 hrs by PI staining based flow cytometry analysis; format: functional; settings: dose 111.1-333.3 nM
[7] = molecular target: Cyclin-dependent kinase 2 (Homo sapiens) (UniProt P24941); assay: Inhibition of CDK2 in human MKN-1 cells assessed as reduction in Rb phosphorylation at Ser807/11 incubated for 24 hrs by Western blotting analysis; format: cell-based; settings: dose 37-3000 nM
[8] = Drug uptake in CD1 mouse plasma at 10 mg/kg, po measured upto 24 hrs by LC-MS/MS analysis; format: ADME, organism-based; settings: in vivo
[9] = molecular target: Cyclin-dependent kinase 2 (Homo sapiens) (UniProt P24941); assay: Inhibition of CDK2 in human MKN-1 cells assessed as reduction in Rb phosphorylation at Ser780 incubated for 24 hrs by Western blotting analysis; format: cell-based; settings: dose 37-3000 nM
[10] = Clearance in CD1 mouse plasma at 1 mg/kg, iv measured upto 24 hrs by LC-MS/MS analysis; format: ADME, organism-based
MKN-1 [11] = assay: Induction of cell cycle arrest in human MKN-1 cells assessed as accumulation of cells at G0/G1 phase at 111.1 to 333.3 nM incubated for 24 hrs by PI staining based flow cytometry analysis; format: functional; settings: dose 111.1-333.3 nM
[12] = molecular target: Cyclin-dependent kinase 7 (Homo sapiens) (UniProt P50613); assay: Inhibition of CDK7 (unknown origin) at 1 uM
Cyclin-dependent kinase 7 (Homo sapiens), sequence (P50613 whole entry): as the sequence (P50613 whole entry) above

[13] = molecular target: Cyclin-dependent kinase 5 (Homo sapiens) (UniProt Q00535); assay: Inhibition of CDK5 (unknown origin) at 1 uM
Cyclin-dependent kinase 5 (Homo sapiens), sequence (Q00535 whole entry, looked up): as the sequence (Q00535 whole entry) above

[14] = molecular target: Cyclin-dependent kinase 12 (Homo sapiens) (UniProt Q9NYV4); assay: Inhibition of CDK12 (unknown origin) at 1 uM
[15] = molecular target: Cyclin-dependent kinase 1 (Homo sapiens) (UniProt P06493); assay: Inhibition of CDK1 (unknown origin) at 1 uM
Cyclin-dependent kinase 1 (Homo sapiens), sequence (P06493 whole entry, looked up): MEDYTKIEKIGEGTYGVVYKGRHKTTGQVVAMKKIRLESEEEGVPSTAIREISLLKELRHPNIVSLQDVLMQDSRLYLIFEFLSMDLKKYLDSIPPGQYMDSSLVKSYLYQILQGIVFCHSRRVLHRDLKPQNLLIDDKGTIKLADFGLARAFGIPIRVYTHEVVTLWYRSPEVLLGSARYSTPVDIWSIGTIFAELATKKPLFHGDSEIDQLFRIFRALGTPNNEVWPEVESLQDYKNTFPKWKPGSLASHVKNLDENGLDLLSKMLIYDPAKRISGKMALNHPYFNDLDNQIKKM

Homo sapiens = species: Homo sapiens; assay: Inhibition of CDK1/cyclin A2 (unknown origin) at 100 nM by ADP-Glo assay
[16] = molecular target: Cyclin-dependent kinase 13 (Homo sapiens) (UniProt Q14004); assay: Inhibition of CDK13 (unknown origin) at 1 uM
Cyclin-dependent kinase 13 (Homo sapiens), sequence (Q14004 whole entry, looked up): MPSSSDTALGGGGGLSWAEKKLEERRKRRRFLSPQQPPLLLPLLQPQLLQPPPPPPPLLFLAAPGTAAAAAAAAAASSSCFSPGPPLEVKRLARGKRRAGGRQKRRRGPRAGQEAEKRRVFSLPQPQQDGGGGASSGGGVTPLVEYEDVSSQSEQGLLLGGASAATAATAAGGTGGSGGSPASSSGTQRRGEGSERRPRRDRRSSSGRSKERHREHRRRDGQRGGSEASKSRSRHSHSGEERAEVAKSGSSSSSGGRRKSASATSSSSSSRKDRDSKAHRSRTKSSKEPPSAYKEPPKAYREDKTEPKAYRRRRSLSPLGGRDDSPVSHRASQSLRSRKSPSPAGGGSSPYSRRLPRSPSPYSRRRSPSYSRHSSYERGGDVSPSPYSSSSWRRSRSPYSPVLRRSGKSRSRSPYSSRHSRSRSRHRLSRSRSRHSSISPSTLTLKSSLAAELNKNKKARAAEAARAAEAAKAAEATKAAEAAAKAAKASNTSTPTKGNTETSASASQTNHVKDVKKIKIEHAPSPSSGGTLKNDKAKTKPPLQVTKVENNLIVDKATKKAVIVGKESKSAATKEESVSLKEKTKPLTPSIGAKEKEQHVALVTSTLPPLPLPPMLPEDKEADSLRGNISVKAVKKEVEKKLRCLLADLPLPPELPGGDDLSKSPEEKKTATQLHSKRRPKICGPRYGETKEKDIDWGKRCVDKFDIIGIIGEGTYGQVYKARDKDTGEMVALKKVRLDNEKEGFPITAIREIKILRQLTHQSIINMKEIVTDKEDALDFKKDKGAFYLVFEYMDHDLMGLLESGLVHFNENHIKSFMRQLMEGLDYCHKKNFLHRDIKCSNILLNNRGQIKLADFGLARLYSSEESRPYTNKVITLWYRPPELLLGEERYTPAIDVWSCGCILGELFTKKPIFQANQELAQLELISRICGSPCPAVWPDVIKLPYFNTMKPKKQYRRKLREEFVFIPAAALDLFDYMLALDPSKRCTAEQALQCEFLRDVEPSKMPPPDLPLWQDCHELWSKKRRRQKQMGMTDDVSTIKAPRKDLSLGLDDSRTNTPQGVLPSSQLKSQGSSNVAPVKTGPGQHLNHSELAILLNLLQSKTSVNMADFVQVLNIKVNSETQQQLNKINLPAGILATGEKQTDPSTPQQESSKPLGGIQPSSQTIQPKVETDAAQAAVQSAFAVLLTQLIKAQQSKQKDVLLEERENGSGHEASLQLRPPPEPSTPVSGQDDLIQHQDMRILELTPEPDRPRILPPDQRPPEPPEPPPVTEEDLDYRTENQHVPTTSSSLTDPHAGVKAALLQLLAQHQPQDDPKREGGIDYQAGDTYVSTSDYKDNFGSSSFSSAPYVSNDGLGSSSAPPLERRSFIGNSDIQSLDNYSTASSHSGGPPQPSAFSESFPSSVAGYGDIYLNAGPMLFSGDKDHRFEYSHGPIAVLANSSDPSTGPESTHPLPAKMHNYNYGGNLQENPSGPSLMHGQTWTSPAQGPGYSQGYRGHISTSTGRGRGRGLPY

[17] = molecular target: CDK12/Cyclin K (Homo sapiens) (UniProt O75909+Q9NYV4); assay: Inhibition of CDK12/Cyclin K (unknown origin) at 100 nM by HTRF assay; format: protein-complex assay
[18] = molecular target: Cyclin-dependent kinase 9 (Homo sapiens) (UniProt P50750); assay: Inhibition of CDK9 (unknown origin) at 1 uM
Cyclin-dependent kinase 9 (Homo sapiens), sequence (P50750 whole entry): as the sequence (P50750 whole entry, the tested form may be a part) above

`CC(C)c1cnn2c3nc(nc12)N(CC1CCNCC1)CCCCCOc1cc(C(F)(F)F)ccc1CN3` gave a Ki (CDK9/cyclin T1) of 43.3 nM, a Ki [1] of 15.1 nM and a Ki (CDK7/Cyclin H/MNAT1) of 161 nM. For the same compound, the Ki [2] was 42.1 nM.

Work on `CC(C)c1cnn2c3nc(nc12)N(CC1CNC1)CCCCCOc1cc(F)c(F)cc1CN3` yielded a Ki [1] of 3.4 nM, a half-life at 1 µM [3] of 22 min and an EC50 (MKN-1 [4]) of 1460 nM.

In the case of `CC(C)c1cnn2c3nc(nc12)N(CC1CCNCC1)CCCCCOc1ccc(C(F)(F)F)cc1CN3`, the Ki [1] is reported as 92.3 nM.

Compound `CC(C)c1cnn2c3nc(nc12)N(CC1CCN(C)CC1)CCCCCOc1ccccc1CN3` has a Ki (CDK9/cyclin T1) of 16.3 nM, a Ki [1] of 2.7 nM and a Ki (CDK7/Cyclin H/MNAT1) of 60.2 nM. For the same compound, the Ki [2] was 1 nM.

For `CC(C)c1cnn2c3nc(nc12)N(CC1CCNCC1)CCCCCOc1ccc(F)cc1CN3`, the Ki [1] was 3.1 nM and the Ki [2] was 2.5 nM.

Work on `CC(C)c1cnn2c3nc(nc12)N(CCC1CNC1)CCCCCOc1cc(S(C)(=O)=O)ccc1CN3` yielded a Ki [1] of 35.3 nM.

Work on `CC(C)c1cnn2c3nc(nc12)N(CC1CCNC1)CCCCCOc1ccccc1CN3` (configuration not stated) yielded a Ki [1] of 1 nM, a Ki (CDK7/Cyclin H/MNAT1) of 9.5 nM and a Ki [2] of 3.6 nM.

In the case of `CC(C)c1cnn2c3nc(nc12)N(CC1CNC1)CCCCCOc1cc(C#N)ccc1CN3`, the Ki [1] is reported as 35.8 nM.

Work on `CC(C)c1cnn2c3nc(nc12)N(C[C@@H]1CNC[C@H]1O)CCCCCOc1ccccc1CN3` yielded a Ki [1] of 0.7 nM, a Ki (CDK7/Cyclin H/MNAT1) of 2.8 nM and a Ki [2] of 0.9 nM.

In the case of `CC(C)c1cnn2c3nc(nc12)N(CC1CCNCC1)CCCCCOc1cc(C#N)ccc1CN3`, the Ki (CDK9/cyclin T1) is reported as 5.8 nM, the Ki [1] is reported as 9.4 nM and the Ki (CDK7/Cyclin H/MNAT1) is reported as 43.4 nM. It also gave a Ki [2] of 4.4 nM.

Work on `CC(C)c1cnn2c3nc(nc12)N(CC1CCOCC1)CCCCCOc1ccccc1CN3` yielded a Ki [1] of 426 nM.

For `CC(C)c1cnn2c3nc(nc12)N(CC1CNC1)CCCCCOc1ccccc1CN3`, the Ki (CDK9/cyclin T1) was 60 nM, the Ki [1] was 3 nM and the half-life at 1 µM [3] was 61.9 min. For the same compound, the EC50 (MKN-1 [4]) was 3400 nM, the half-life at 1 µM [5] was 36.1 min and the Ki (CDK7/Cyclin H/MNAT1) was 101 nM. The Ki [2] was 30.7 nM.

For `CC(C)c1cnn2c3nc(nc12)N(CCC1CNC1)CCCCCOc1ccccc1CN3`, the Ki [1] was 48.4 nM and the Ki [2] was 28.7 nM.

For `CC(C)c1cnn2c3nc(nc12)N(CC1CNC1)CCCCCOc1cc(C(F)(F)F)ccc1CN3`, the Ki [1] was 15.4 nM.

With `CC(C)c1cnn2c3nc(nc12)N(CC(C)(C)CN)CCCCCOc1ccccc1CN3` the Ki [1] was 49.6 nM and the Ki [2] was 60.3 nM.

For `CC(C)c1cnn2c3nc(nc12)N(C1CNC1)CCCCCOc1ccccc1CN3`, the Ki [1] was 158 nM.

Work on `CC(C)c1cnn2c3nc(nc12)N(CC1CCNCC1)CCCCCOc1cc(S(C)(=O)=O)ccc1CN3` yielded a Ki (CDK9/cyclin T1) of 2.7 nM, a Ki [1] of 4.9 nM and a Ki (CDK7/Cyclin H/MNAT1) of 21.3 nM. For the same compound, the Ki [2] was 2.4 nM.

`CC(C)c1cnn2c3nc(nc12)N(CC1CNC1)CCCCCOc1ccc(F)cc1CN3` gave a Ki [1] of 1 nM, a half-life at 1 µM [3] of 15.2 min and an EC50 (MKN-1 [4]) of 940 nM.

With `CC(C)n1cnc2c3nc(nc21)N(CC1CNC1)CCCCCOc1cc(S(C)(=O)=O)ccc1CN3` the Activity (MKN-1 [6]) was “Active”, the Ki [1] was 3.6 nM and the half-life at 1 µM [3] was 6.3 min. The EC50 (MKN-1 [4]) was 740 nM, the inhibition [7] was “Dose-Dependent Effect” and the half-life at 1 µM [5] was 46.2 min. The Drug uptake [8] was “Not Active”, the inhibition [9] was “Dose-Dependent Effect” and the clearance [10] was 159 mL/min/kg. For the same compound, the Activity (MKN-1 [11]) was “Active”.

`CC(C)c1cnn2c3nc(nc12)N(CC1CNC1)CCCCCOc1ccc(C#N)cc1CN3` showed a Ki [1] of over 1000 nM.

With `CC(C)c1cnn2c3nc(nc12)N(CC1CNC1)CCCCCOc1cc(S(C)(=O)=O)ccc1CN3` the Activity (MKN-1 [6]) was “Active”, the inhibition [12] was “Active” and the Ki [1] was 1 nM. For the same compound, the inhibition [13] was “Active”, the half-life at 1 µM [3] was 112 min and the inhibition [14] was “Active”. The inhibition [15] was “Active”, the EC50 (MKN-1 [4]) was 310 nM and the inhibition [7] was “Dose-Dependent Effect”. The inhibition (Homo sapiens) was “Active”, the half-life at 1 µM [5] was 122 min and the Drug uptake [8] was “Not Active”. For the same compound, the inhibition [16] was “Active”, the inhibition [9] was “Dose-Dependent Effect” and the clearance [10] was 159 mL/min/kg. For the same compound, the inhibition [17] was “Active”, the inhibition [18] was “Active” and the Activity (MKN-1 [11]) was “Active”.

Compound `CC(C)c1cnn2c3nc(nc12)N(CC1CCNCC1)CCCCCOc1cc(F)c(F)cc1CN3` has a Ki [1] of 2.9 nM and a Ki [2] of 4.4 nM.

Work on `CC(C)c1cnn2c3nc(nc12)N(CC1CNC1)CCCCCOc1ccc(C(F)(F)F)cc1CN3` yielded a Ki [1] of over 1000 nM.

Work on `CC(C)c1cnn2c3nc(nc12)N(CC1CCNCC1)CCCCCOc1ccc(S(C)(=O)=O)cc1CN3` yielded a Ki [1] of 83.2 nM.

`CC(C)c1cnn2c3nc(nc12)N(CC1CCCNC1)CCCCCOc1ccccc1CN3` (configuration not stated) showed a Ki [1] of 46.1 nM and a Ki [2] of 140 nM.
